Laboratory results as given in patent publication US7994116B2, “Methods for reduction of adhesion formation using cytokine inhibitors” (Pharmasurgics In Sweden AB, priority 2002, dated 2011).

Key:
TNF = details: following single administration in the dosage used (4 mg/kg); cited from earlier work
[1] = system: rats with a standardized laminectomy; experiment: laminectomy model on the rat, infliximab treatment: wound healing and scar formation; assay type: in vivo; details: laminectomy of 4th lumbar vertebra, 4 mg/kg intraperitoneal
Procedure: Four rats were anaesthetized with a standardized combination of pentobarbital and diazepam. The skin on the back was shaved. Through a midline incision, a laminectomy of the 4th lumbar vertebra was performed. The spinal muscles and the skin was sutured. Two rats received an intraperitoneal injection of 4 mg/kg of infliximab. Infliximab is a monoclonal antibody towards TNF with an inhibiting action with a duration of 1-2 months following single administration in the dosage used. The other two rats received an intraperitoneal injection of saline. After 2 weeks, the rats were reanaesthesized and wound healing and scar formation were evaluated by a person being unaware of the experimental protocol. Wound healing was considered normal in both groups. […] In the non-treated group, there was a somewhat more dense lump of connective tissue that was adherent to the spinal dura mater.

infliximab
duration of inhibiting action towards TNF (TNF): 1-2 months | adhesion of connective tissue to the spinal dura mater ([1]; after 2 weeks, saline group: adherent to the dura mater): did not adhere to the spinal dura mater and was easy to remove | scar formation: tissue filling the previous location of the lamina ([1]; after 2 weeks, saline group: somewhat more dense lump of connective tissue): soft connective tissue | wound healing ([1]; evaluated after 2 weeks, blinded): normal
